Source: article PMC8097242, “Galectin-4 N-Terminal Domain: Binding Preferences Toward A and B Antigens With Different Peripheral Core Presentations” (Frontiers in Chemistry, 2021)
One block for each compound: values may come before it.

Tests used:
Type in all cases: binding
[1] = molecular target: T1, N-terminal CRD of hGalectin-4 (Gal-4N) (Homo sapiens, UniProt P56470); experiment: Isothermal titration calorimetry (ITC); settings: for Kd: PBS pH 7.4, single binding site model
T1 construct: N-terminal CRD of hGalectin-4 (amino acids 1–150, including an additional C-terminus His-Tag); His-Tag (C, cleaved yes); made in house; host or cells: E. coli BL21 (pET29b)
T1 sequence (P56470 1-150): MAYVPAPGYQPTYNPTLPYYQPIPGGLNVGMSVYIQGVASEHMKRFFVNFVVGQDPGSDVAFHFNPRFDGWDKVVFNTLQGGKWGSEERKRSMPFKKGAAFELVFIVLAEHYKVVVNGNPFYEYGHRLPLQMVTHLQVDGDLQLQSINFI
Method: Isothermal titration calorimetry experiments were performed using the MicroCal PEAQ-ITC calorimeter (Malvern Panalytical, Malvern, United Kingdom). Samples containing 100–200 μM of Gal-4N in PBS (50 mM sodium phosphate, pH 7.4, 300 mM NaCl) were titrated with stocks of 3–10 mM in PBS of glycans 4, 5, 7, 8, 9, and 11. During the automated experiment, small aliquots (2–3 μL) of the sugar stocks were added to the cell containing the lectin. Curve fitting to a single binding site model was performed with the MicroCal Origin 7 software.
Isothermal titratrion calorimetry (ITC). Isothermal Titration Calorimetry experiments were performed using MicroCal PEAQ-ITC calorimeter. Samples containing 100-200 µM of Gal-4N in PBS (50 mM sodium phosphate pH 7.4, 300 mM NaCl) were titrated with stocks of 3-10 mM in PBS of glycans A type 1, A type 2, A type 6, B type 1, B type 2 and B type 6. During the automated experiment, small aliquots (2-3 µL) of the sugar stocks were added to the cell containing the lectin. The association constants and the thermodynamic profile of the binding was calculated from the fitting of the titration data to a single binding site model.

[2] = molecular target: T1, N-terminal CRD of hGalectin-4 (Gal-4N); experiment: 1H-15N HSQC NMR-based titrations (chemical shift perturbation) of 15N-labeled Gal-4N
Method: The molecular recognition event was also analyzed from the perspective of the lectin. Thus, a chemical shift perturbation (CSP) analysis of the changes produced in the ^1H-^15N HSQC spectra recorded for ^15N-labeled Gal-4N upon addition of the different ligands was carried out. This analysis required the NH backbone NMR assignment of the lectin signals, following well-established triple resonance 3D NMR methods (see Materials and methods and Supplementary Information). The assignment protocol allowed assigning 80% of the NH backbone resonances. In addition to the ligands shown in Scheme 1, the corresponding non-fucosylated analogs and the H antigens (devoid of the terminal Gal/GalNAc moieties, see Supplementary Information), as well as lactose, were also employed. Thus, a full comparative analysis on the monosaccharide-specific effects on the lectin CSP was achieved.
The total volume for the NMR samples was 500/μl. The lectin was in phosphate-buffered saline (50 mM sodium phosphate, 150 mM NaCl, pH 7.4), either in D2O or 90:10 H2O:D2O depending on the NMR experiment. The pH was adjusted with the required amount of NaOH and HCl or NaOD and DCl.
experiments were acquired using an 800 MHz Bruker spectrometer with a cryoprobe (Bruker, Billerica, MA, United States). The samples were prepared using 50 μM of the ^15N-labeled lectin in the corresponding buffer in a 90:10 H2O:D2O ratio. The experiments were performed at 298 K. Six to nine points were recorded for each ligand and CSP and KD were calculated using CcpNmr Analysis 2.4.2.

[3] = molecular target: T1, N-terminal CRD of hGalectin-4 (Gal-4N); experiment: 1H Saturation Transfer Difference (STD) NMR epitope mapping
Method: ^1H-saturation transfer difference NMR spectra were acquired for mixtures of Gal-4N (50 μM) with a 50-fold excess of ligand. Protein aromatic irradiation afforded the best STD intensities and thus these are discussed henceforth. The STD NMR spectra were very similar among the different ligands with respect to both the observed glycan protons and their intensities. […] Severe proton overlapping precluded a full comparison among ligands, but key isolated ^1H NMR resonance signals permitted to highlight evident differences.
All the STD NMR experiments were performed using an 800 MHz Bruker spectrometer with a cryoprobe (Bruker, Billerica, MA, United States). The samples were prepared in the corresponding deuterated buffer. The temperature was 288 K for every experiment. An amount of 50 μM of the lectin with 50 equivalents of the ligand was employed for every experiment except for lactose, for which a 1:70 ratio was used. The STD spectra were acquired with 1,024 scans, 2 s of saturation time using a train of 50 ms Gaussian-shaped pulses, and 3 s of relaxation delay. The spin-lock filter applied to remove the signals of the lectin was set at 40 ms. The on-resonance frequency was set for the aromatic region at 6.58 ppm, while the off-resonance frequency was set at 100 ppm.
Supplementary Table S1. Relative STD-AF (Amplification factor) and STD percentage of each non overlapping proton of each ligand.

[4] = HSQC NMR-based titration, 50 μM 15N-labeled lectin, 298 K, read-out: KD (μM) (NMR)

- -TΔS (kcal mol^–1) (ITC) [1]: 1.0 kcal mol^–1
- ΔG (kcal mol^–1) (ITC) [1]: −4.9 kcal mol^–1
- ΔH (kcal mol^–1) (ITC) [1]: −5.9 kcal mol^–1
- Kd [1]: 267 µM
Compound: CC(=O)N[C@@H]1[C@@H](O[C@@H]2O[C@H](CO)[C@H](O)[C@H](O[C@H]3O[C@H](CO)[C@H](O)[C@H](O)[C@H]3NC(C)=O)[C@H]2O[C@@H]2O[C@@H](C)[C@@H](O)[C@@H](O)[C@@H]2O)[C@H](O)[C@@H](CO)O[C@H]1O [A type-1 (tetra)]

- Kd [2, 4]: 370 µM
- -TΔS (kcal mol^–1) (ITC) [1]: 1.8 kcal mol^–1
- ΔG (kcal mol^–1) (ITC) [1]: −5.1 kcal mol^–1
- ΔH (kcal mol^–1) (ITC) [1]: −6.9 kcal mol^–1
- Kd [1]: 187 µM
Compound: CC(=O)NC1C(O)OC(CO)C(OC2OC(CO)C(O)C(OC3OC(CO)C(O)C(O)C3NC(C)=O)C2OC2OC(C)C(O)C(O)C2O)C1O (centres unmarked) [A type−2 (tetra)]

- Kd ([2]; NMR titration, read-out: KD): 1600 µM
Compound: OC[C@H]1O[C@@H](O[C@H]2[C@H](O)[C@@H](O)C(O)O[C@@H]2CO)[C@H](O)[C@@H](O)[C@H]1O (mixture of isomers) [Lactose]

- STD% ([3]; 1H-residue H1GalNAc): 95%
- STD-AF ([3]; 1H-residue H1GalNAc, 50:1 ligand:lectin, 288 K): 0.0145
- STD% ([3]; 1H-residue H1Galβ): 61%
- STD-AF ([3]; 1H-residue H1Galβ): 0.0092
- STD% ([3]; 1H-residue H2Galβ): 36%
- STD-AF ([3]; 1H-residue H2Galβ): 0.0054
- STD% ([3]; 1H-residue H3GalNAc): 28%
- STD-AF ([3]; 1H-residue H3GalNAc): 0.0043
- STD% ([3]; 1H-residue H3GalNAcb): 15%
- STD-AF ([3]; 1H-residue H3GalNAcb): 0.0023
- STD% ([3]; 1H-residue H3Galβ): 21%
- STD-AF ([3]; 1H-residue H3Galβ): 0.0032
- STD% ([3]; 1H-residue H4GalNAcb): 24%
- STD-AF ([3]; 1H-residue H4GalNAcb): 0.0036
- STD% ([3]; 1H-residue H4Galβ): 71%
- STD-AF ([3]; 1H-residue H4Galβ): 0.0108
- STD% ([3]; 1H-residue H5Galβ): 100%
- STD-AF ([3]; 1H-residue H5Galβ): 0.0152
- STD-AF ([3]; 1H-residue MetFuc): 0.0012
- STD% ([3]; 1H-residue NHAc GalNAc): 68%
- STD-AF ([3]; 1H-residue NHAc GalNAc): 0.0104
- Kd [2, 4]: 1380 µM
Compound: CC(=O)N[C@H]1[C@@H](O[C@H]2[C@@H](O)[C@@H](CO)O[C@@H](O[C@H]3[C@@H](O)[C@@H](CO)O[C@@H](O[C@@H]4[C@@H](O)[C@H](O)O[C@H](CO)[C@@H]4O)[C@@H]3NC(C)=O)[C@@H]2O[C@@H]2O[C@@H](C)[C@@H](O)[C@@H](O)[C@@H]2O)O[C@H](CO)[C@H](O)[C@@H]1O [A type-4 (penta)]
